Results reported in patent US8003658B2, “Quinazoline derivatives for inhibiting cancer cell growth and method for the preparation thereof” (Hanmi Holdings Co., Ltd., priority 2004, dated 2011).
Where two headings read alike, the source gives them in different places.

How the values were obtained:
[1] = tested on: A431 (ATCC: CRL-1555); assay: Test of cancer cell growth inhibition (SRB), A431; conditions: read-out: IC50 A431
[2] = tested on: SK-Br3 (ATCC: HTB-30); assay: Test of cancer cell growth inhibition (SRB), SK-Br3; conditions: read-out: IC50 SK-Br-3
[3] = EGFR overexpressed A431, 72 hours, SRB
[4] = Erb-B2 overexpressed SK-Br3, 72 hours, SRB

SMILES	IC50 ([1]; Homo sapiens, A-431, 72 h) [nM]	IC50 ([2]; Homo sapiens, SK-BR-3, 72 h) [nM]	IC50 [1, 3] [nM]	IC50 [2, 4] [nM]
CC(C)(C)OC(=O)NCC(=O)Nc1ccc2ncnc(Nc3ccc(OCc4cccc(F)c4)c(Cl)c3)c2c1 [Example 1-5, ({4-[3-chloro-4-(3-fluoro-benzyloxy)-phenylamino]-quinazolin-6-ylcarbamoyl}-methyl)-carbamic acid t-butylester]	408	359		
COCC(=O)N[C@@H](CCSC)C(=O)Nc1ccc2ncnc(Nc3ccc(OCc4cccc(F)c4)c(Cl)c3)c2c1 [Example 7-2, (2S)—N-{4-[3-chloro-4-(3-fluoro-benzyloxy)-phenylamino]-quinazolin-6-yl}-2-(2-methoxy-acetylamino)-4-methanesulfanyl-butyramide]			740	261
CSCC[C@H](NC(=O)CS(C)(=O)=O)C(=O)Nc1ccc2ncnc(Nc3ccc(OCc4cccc(F)c4)c(Cl)c3)c2c1 [Example 8, (2S)—N-{4-[3-chloro-4-(3-fluoro-benzyloxy)-phenylamino]-quinazolin-6-yl}-2-(2-methanesulfonyl-acetamino)-4-methanesulfanyl-butyramide]			308	190
COCC(=O)N[C@H](C(=O)Nc1ccc2ncnc(Nc3ccc(OCc4cccc(F)c4)c(Cl)c3)c2c1)c1ccccc1 [Example 11, (2S)—N-{4-[3-chloro-4-(3-fluoro-benzyloxy)-phenylamino]-quinazolin-6-yl}-2-(2-methoxy-acetylamino)-2-phenyl-acetamide]	252	113		
CS(=O)(=O)CC(=O)N1CCCC1C(=O)Nc1ccc2ncnc(Nc3ccc(OCc4cccc(F)c4)c(Cl)c3)c2c1 (stereo not drawn) [Example 17, 1-(2-methanesulfonyl-acetyl)-pyrrolidine-2-carboxylic acid {4-[3-chloro-4-(3-fluoro-benzyloxy)-phenylamino]-quinazolin-6-yl}-amide]	713	182		
CC(C)(C)OC(=O)NCCC(=O)Nc1ccc2ncnc(Nc3ccc(OCc4cccc(F)c4)c(Cl)c3)c2c1 [Example 19, (2-{4-[3-chloro-4-(3-fluoro-benzyloxy)-phenylamino]-quinazolin-6-ylcarbamoyl}-ethyl)-carbamic acid t-butylester]	335	427		
O=C(CCc1ccccc1)NCCC(=O)Nc1ccc2ncnc(Nc3ccc(OCc4cccc(F)c4)c(Cl)c3)c2c1 [Example 23, 3-phenyl-propionylic acid (2-{4-[3-chloro-4-(3-fluoro-benzyloxy)-phenylamino]-quinazolin-6-ylcarbamoyl}-ethyl)-amide]			316	359
O=C(C=Cc1ccccc1)NCCC(=O)Nc1ccc2ncnc(Nc3ccc(OCc4cccc(F)c4)c(Cl)c3)c2c1 [Example 26, N-(2-{4-[3-chloro-4-(3-fluoro-benzyloxy)-phenylamino]-quinazolin-6-ylcarbamoyl}-ethyl)-3-phenyl-acrylamide]	801	872		
Cc1cc(C(=O)NCCC(=O)Nc2ccc3ncnc(Nc4ccc(OCc5cccc(F)c5)c(Cl)c4)c3c2)on1 [Example 32, 3-methyl-isoxazol-5-carboxylic acid (2-{4-[3-chloro-4-(3-fluoro-benzyloxy)-phenylamino]-quinazolin-6-ylcarbamoyl}-ethyl)-amide]	312	163		
O=C(CCNC(=O)c1ccoc1)Nc1ccc2ncnc(Nc3ccc(OCc4cccc(F)c4)c(Cl)c3)c2c1 [Example 33, furan-3-carboxylic acid (2-{4-[3-chloro-4-(3-fluoro-benzyloxy)-phenylamino]-quinazolin-6-ylcarbamoyl}-ethyl)-amide]	348	131		
O=C(CCNC(=O)c1cn[nH]c1)Nc1ccc2ncnc(Nc3ccc(OCc4cccc(F)c4)c(Cl)c3)c2c1 [Example 34, 1H-pyrazol-4-carboxylic acid (2-{4-[3-chloro-4-(3-fluoro-benzyloxy)-phenylamino]-quinazolin-6-ylcarbamoyl}-ethyl)-amide]	896	141		
O=C(CCNC(=O)C1CC1)Nc1ccc2ncnc(Nc3ccc(OCc4cccc(F)c4)c(Cl)c3)c2c1 [Example 37, cyclopropylcarboxylic acid (2-{4-[3-chloro-4-(3-fluoro-benzyloxy)-phenylamino]-quinazolin-6-ylcarbamoyl}-ethyl)-amide]	137	160		
CC(CNC(=O)OC(C)(C)C)C(=O)Nc1ccc2ncnc(Nc3ccc(OCc4cccc(F)c4)c(Cl)c3)c2c1 (stereo not drawn) [Example 41, (2-{4-[3-chloro-4-(3-fluoro-benzyloxy)-phenylamino]-quinazolin-6-ylcarbamoyl}-propyl)-carbamic acid t-butylester]	936	172		
CC(CNC(=O)CS(C)(=O)=O)C(=O)Nc1ccc2ncnc(Nc3ccc(OCc4cccc(F)c4)c(Cl)c3)c2c1 (stereo not drawn) [Example 43, N-{4-[3-chloro-4-(3-fluoro-benzyloxy)-phenylamino]-quinazolin-6-yl}-3-(2-methanesulfonyl-acetylamino)-2-methyl-propionamide]	390	115		
COCC(=O)Nc1ccsc1C(=O)Nc1ccc2ncnc(Nc3ccc(OCc4cccc(F)c4)c(Cl)c3)c2c1 [Example 48, 3-(2-methoxy-acetylamino)-thiophene-2-carboxylic acid {4-[3-chloro-4-(3-fluoro-benzyloxy)-phenylamino]-quinazolin-6-yl}-amide]	828	131		
Cc1ccc(Oc2ccc(Nc3ncnc4ccc(NC(=O)CCNC(=O)CS(C)(=O)=O)cc34)cc2C)cn1 [Example 50-2, 3-(2-methanesulfonyl-acetylamino)-N-{4-[3-methyl-4-(6-methyl-pyridin-3-yloxy)-phenylamino]-quinazolin-6-yl}-propionamide]	845	99		
CS(=O)(=O)CC(=O)NCCC(=O)Nc1ccc2ncnc(Nc3ccc(F)c(Cl)c3)c2c1 [Example 53-2, N-[4-(3-chloro-4-fluoro-phenylamino)-quinazolin-6-yl]-3-(2-methanesulfonyl-acetylamino)-propionamide]	124	258		
CN(C)CC=CC(=O)NCCC(=O)Nc1ccc2ncnc(Nc3ccc(OCc4cccc(F)c4)c(Cl)c3)c2c1 [Example 56, 4-dimethylamino-but-2-enonylic acid (2-{4-[3-chloro-4-(3-fluoro-benzyloxy)-phenylamino]-quinazolin-6-ylcarbamoyl}-ethyl)-amide]			613	51
O=C(C=CCN1CCOCC1)NCCC(=O)Nc1ccc2ncnc(Nc3ccc(OCc4cccc(F)c4)c(Cl)c3)c2c1 [Example 57, 4-morpholin-4-yl-but-2-enonylic acid (2-{4-[3-chloro-4-(3-fluoro-benzyloxy)-phenylamino]-quinazolin-6-ylcarbamoyl}-ethyl)-amide]			625	43
CN1CCN(CC(=O)NCCC(=O)Nc2ccc3ncnc(Nc4ccc(OCc5cccc(F)c5)c(Cl)c4)c3c2)CC1 [Example 64, N-{4-[3-chloro-4-(3-fluoro-benzyloxy)-phenylamino]-quinazolin-6-yl}-3-[2-(4-methyl-piperazin-1-yl)-acetylamino]-propionamide]	698	212		
CS(=O)(=O)CC(=O)NCCCC(=O)Nc1ccc2ncnc(Nc3ccc(OCc4cccc(F)c4)c(Cl)c3)c2c1 [Example 88, N-{4-[3-chloro-4-(3-fluoro-benzyloxy)-phenylamino]-quinazolin-6-yl}-4-(2-methanesulfonyl-acetylamino)-butyramide]	732	62		
